# Ends that are not written are not given here.
# Key:
# [1] = pre-lantibiotic in contrast to nisin; cited from earlier work
# Protocol: As an advantage any lantibiotic can be produced as a pre-lantibiotic. […] Normally, we observed yields for the pre-nisin and its variants of 3–6 mg per liter cell culture supernatant after purificatio ...
# NisP = test: Leader peptide cleavage of pre-nisin variants by NisP (RP-HPLC); format: biochemical, Lactococcus lactis; details: in vitro cleavage of the leader peptide from purified pre-nisin (variant) by purified secreted NisP, overnight at 8 °C, integration of leader peptide peaks
# Description: Step IV concerns leader peptide cleavage and thereby activation of the purified pre-nisin variants. Here, we used the secreted variant of the natural leader peptidase NisP, by which the leader peptide is cleaved in vitro and the cleavage efficiency (%) can be calculated as recently shown. We used an RP-HPLC set-up to monitor product formation, in which the appearance of the leader peptide in the chromatograms was used to determine the concentration of activated nisin (Supplementary Fig. S3). […] The nisin core peptide eluted at a later retention time of approximately 23 min (Supplementary Fig. S3). […] However, in the case of the I1 mutants I1A, I1G, I1T, I1S, I1K, I1R, I1H, I1Q, I1E, I1N and I1D) the formation of a core peptide peak in terms of a new and separated peak in the chromatogram was not observed (Supplementary Fig. S4). Rather, the peaks with a retention time between 18–21 min contained both species, the cleaved and non-cleaved lantibiotic, and can therefore not be deconvoluted for proper determination of the amount of activated nisin. […] The concentration was calculated based on a standard calibration curve (Supplementary Fig. S5), where we precisely determined the concentration of the activated nisin or I1 mutants. We used this concentration determination instead of the colorimetric protein concentration determination as for example Bradford or the BCA-assay since the latter two assays cannot differentiate between the activated and non-activated form of the secreted variants. Since nisin is not active unless the leader is cleaved off, the determination of the area of the leader peak to calculate the amount of the activated lantibiotic directly relates to the antimicrobial activity without need to further purify the peptide after cleavage.
# All I1 mutations were subjected to NisP cleavage and most of the variants were cleaved, but a strong influence of the nature of the I1 substitutions with respect to cleavage efficiency was observed (Supplementary Fig. S6). The cleavage efficiency for wild type pre-nisin A was 94.3 ± 1.7% but lower for the mutants I1M, I1L, I1A and I1V (72.3 ± 1.4%, 72.4 ± 1.3%, 81.0 ± 1.8% and 58.1± 2.8%, respectively). […] This holds especially in those cases, where the amino acid at position one was exchanged to a charged amino acid (e.g. I1K 9.2 ± 1.3%; I1E 9.5 ± 0.7%) or contained a bulky hydrophobic side chain (e.g. I1F 12.9 ± 0.8%; I1W 5.7 ± 0.2%; I1Y 22.6 ± 2.3%) (Supplementary Fig. S6). […] Even after an extensive prolongation of the incubation time, no leader peptide peak was detected in the RP-HPLC chromatogram (Supplementary Fig. S4). It is important to stress in this context that the cleavage efficiencies cannot be determined from Tricine-SDS gels (20%). Here, the leader peptide as well as the core peptide would co-migrate, which obviously will falsify the staining results.
# Pre-nisin and its variants were expressed and purified as previously described[41],[49],[69]. The purity of pre-nisin and its variants was controlled by Tricine-SDS-PAGE (20%)[70]. The activation of all variants was performed by NisP cleavage overnight at 8 °C. Pre-nisin cleavage and its variants was monitored by RP-HPLC[49],[69].
# Pre-nisin and the activated nisin variants were analysed by RP-HPLC (Agilent Technologies 1260 Infinity II) with a LiChrospher WP 300 RP-18 end-capped column and an acetonitrile/water solvent system. The cleavage efficiency and the concentration of active lantibiotic was calculated as described previously[49],[69].
Compound,pH stability [1],cleavage efficiency by NisP (NisP)
"wild type pre-nisin A: leader-containing, fully modified precursor of nisin A, not yet activated by NisP (MSTKDFNLDLVSVSKKDSGASPRITSISLCTPGCKTGALMGCNMKTATCHCSIHVSK; thioether (positions not given here); not fully specified (some residues, bridges); also: fully post-translationally modified, places not given here; UniProt P13068 1-57, looked up) [reference compound]",higher pH stability,94.3 ± 1.7%
C=C(NC(=O)[C@@H](NC(=O)[C@H](Cc1c[nH]cn1)NC(=O)[C@@H](NC(=O)[C@H](CO)NC(=O)[C@@H]1CS[C@@H](C)[C@H]2NC(=O)[C@H](C)NC(=O)[C@H](NC(=O)[C@H](CCCCN)NC(=O)[C@H](CCSC)NC(=O)[C@H](CC(N)=O)NC(=O)[C@@H]3CS[C@@H](C)[C@@H](NC(=O)[C@H](CCCCN)NC(=O)[C@@H]4CS[C@@H](C)[C@@H](NC(=O)[C@@H]5CSC[C@@H](NC(=O)/C(=C/C)NC(=O)[C@H](C)N)C(=O)N[C@@H]([C@@H](C)CC)C(=O)NC(=C)C(=O)N[C@@H](CC(C)C)C(=O)N5)C(=O)N5CCC[C@H]5C(=O)NCC(=O)N4)C(=O)NCC(=O)N[C@@H](C)C(=O)N[C@@H](CC(C)C)C(=O)N[C@@H](CCSC)C(=O)NCC(=O)N3)[C@H](C)SC[C@H](NC2=O)C(=O)N[C@@H](Cc2c[nH]cn2)C(=O)N1)[C@@H](C)CC)C(C)C)C(=O)N[C@@H](CCCCN)C(=O)O [I1A],–,81.0 ± 1.8%
"I1P: nisin A variant, position one exchanged to P; pre-peptide not cleaved by NisP (MSTKDFNLDLVSVSKKDSGASPRPTSISLCTPGCKTGALMGCNMKTATCHCSIHVSK; ends and bridges not checked; cysteine pairing not given here; UniProt P13068 1-57, looked up, variant I1P)",–,not cleaved at all
C=C(NC(=O)[C@@H](NC(=O)[C@H](Cc1c[nH]cn1)NC(=O)[C@@H](NC(=O)[C@H](CO)NC(=O)[C@@H]1CS[C@@H](C)[C@H]2NC(=O)[C@H](C)NC(=O)[C@H](NC(=O)[C@H](CCCCN)NC(=O)[C@H](CCSC)NC(=O)[C@H](CC(N)=O)NC(=O)[C@@H]3CS[C@@H](C)[C@@H](NC(=O)[C@H](CCCCN)NC(=O)[C@@H]4CS[C@@H](C)[C@@H](NC(=O)[C@@H]5CSC[C@@H](NC(=O)/C(=C/C)NC(=O)[C@@H](N)CCSC)C(=O)N[C@@H]([C@@H](C)CC)C(=O)NC(=C)C(=O)N[C@@H](CC(C)C)C(=O)N5)C(=O)N5CCC[C@H]5C(=O)NCC(=O)N4)C(=O)NCC(=O)N[C@@H](C)C(=O)N[C@@H](CC(C)C)C(=O)N[C@@H](CCSC)C(=O)NCC(=O)N3)[C@H](C)SC[C@H](NC2=O)C(=O)N[C@@H](Cc2c[nH]cn2)C(=O)N1)[C@@H](C)CC)C(C)C)C(=O)N[C@@H](CCCCN)C(=O)O [I1M],–,72.3 ± 1.4%
